# In patent US20250352555A1, “METHOD OF INCREASING IMMUNE CELL ACTIVATION AND/OR TREATING CANCER USING DIBENZOXAZEPINONES” (VASCULAR THERAPEUTICS PTY LTD, priority 2022, published 2025):
# What was measured:
# B16F10 melanoma = experiment: Melanoma growth in C57BL/6J mice bearing s.c. B16F10 tumors; assay type: in vivo, mouse
# Protocol: Melanoma growth studies in mice. Six-to-eight week old C57BL/6J mice (sourced from Australian Resource Centre, Perth) were inoculated subcutaneously (s.c.) with B16F10 cells (1×10^5 cells/mouse in 100 μl DMEM containing 10% FBS with 50% Matrigel). InVivoPlus anti-mouse PD-1 (CD279) (BioXCell, BP0033-2) or InVivoPlus polyclonal Armenian hamster IgG (Bio X Cell, BP0091) was administered intraperitoneally (i.p.) (100 μg) twice a week. Treatment commenced on Day 7.
# Alternatively, BT2 was suspended at 10 mg/ml in vehicle (saline containing 0.5% (v/v) Tween 80 and 0.01% (v/v) DMSO) and sonicated prior to administration. Vehicle or BT2 was administered i.p. (20 ml/kg and 200 mg/kg, respectively) once a day on a 5 days-on/2 days-off schedule. Treatment commenced when tumors were palpable on Day 5.
# Tumors were measured by length and width in mm twice per week for MDA-MB-435 in SCID mice and by length, width and height in mm once per day for B16F10 in C57BL/6J mice. Tumor volumes were calculated using formula V=(L×W×H×π)/6 (B16F10) or V=L×W×W/2 (MDA-MB-435). If a second tumor was detected in an animal, both tumor volumes were measured and their volumes combined. Animal protocols were approved by the Explora Biolabs' Institutional Animal Care and Use Committee (IACUC) and the UNSW Animal Care and Ethics Committee.
# The preceding xenograft studies showing anti-tumor effects in immunocompromised mice when BT2 is delivered intratumorally (i.t.) but not systemically (i.p.) led the inventors to hypothesize that BT2 could rely upon an active immune system in order to effect tumor growth inhibition. Therefore, the effect of BT2 was tested in an immunocompetent mouse model of melanoma growth using B16F10 melanoma. […]
# To assess the effect of BT2 in the same model, C57BL/6J mice bearing s.c. B16F10 tumors were administered with BT2 or vehicle (200 mg/kg or 20 ml/kg, respectively, i.p.) once a day on a 5 days-on/2 days-off schedule. […] Tumor size on Day 17 measured using callipers (FIG. 10A) correlated with isolated weighed tumors (FIG. 10B).
# p-ERK = experiment: Immunohistochemistry of MDA-MB-435 tumors, p-ERK; assay type: in vivo, mouse; settings: SCID mice, 20 mg/kg i.t.
# Description: Immunohistochemical staining and analyses. Rabbit monoclonal anti-CD3 (cat. no. ab16669; mouse, rat and human reactive), rabbit monoclonal anti-PD-1 (cat. no. ab214421), rabbit monoclonal anti-CD68 (cat. no. ab125212) antibodies were obtained from Abcam, rabbit monoclonal anti-phospho-ERK (Thr^202/Tyr^204) (cat. no. CST4370), rabbit monoclonal total ERK (cat. no. CST4695), antibodies were obtained from Cell Signaling Technology. Rabbit polyclonal anti-PD-L1 (cat. no. PA5-20343) antibody was obtained from ThermoFisher.
# Formalin fixed, paraffin embedded sections were prepared from tumors. Heat-induced epitope retrieval was applied to all deparaffinized sections (4 μm sections on Superfrost slides) with citrate buffer, pH 6.0 for 5 min at 110° C. Sections were blocked with Dual Endogenous Enzyme Block (DAKO, S2003) for 10 min and then with 2% skim milk for 20 min. Slides were incubated with primary antibody for 60 min at room temperature or overnight at 4° C. and then for 10 min with probe of MACH3 Rabbit AP-Polymer Detection solution (Biocare Medical, M3R533 G, H, L). […] Integrated optical density (IOD) or area of positive staining (red chromagen) was assessed using Image-Pro Plus software (Cybernetics, Bethesda, MD, USA). Positive staining was the average of quantitation in 4-8 fields of view under 20× or 40× objectives.
smiles,measurement,setting,value
"CCOC(=O)Nc1ccc2c(c1)C(=O)N(CC)c1ccccc1O2 [BT2, (10-ethyl-11-oxo-10,11-dihydro-dibenzo[b,f][1,4]oxazepin-2-yl)-carbamic acid ethyl ester]",B16F10 tumor growth (volume),"B16F10 melanoma; C57BL/6J mice, 200 mg/kg i.p. once a day, 5 days-on/2 days-off, from Day 5",significant B16F10 growth inhibition from Day 9
same,body weight,"B16F10 melanoma; C57BL/6J mice, B16F10, 200 mg/kg i.p. once a day, 5 days-on/2 days-off",no adverse effect on body weight
same,mice with tumor size exceeding 500 mm^3 (Kaplan-Meier analysis),"B16F10 melanoma; Day 17, 200 mg/kg i.p., vehicle 75%",none
same,ERK phosphorylation in the tumors (IHC),p-ERK,suppression of ERK phosphorylation
